According to US20230381280A1, “NEW DOSAGE REGIMEN FOR INHALED VASOACTIVE INTESTINAL POLYPEPTIDE” (priority 2020, published 2023):

Tested on: COVID-19 pulmonary involvement

CC[C@H](C)[C@H](NC(=O)[C@H](CO)NC(=O)[C@H](CC(N)=O)NC(=O)[C@H](CC(C)C)NC(=O)[C@H](Cc1ccc(O)cc1)NC(=O)[C@H](CCCCN)NC(=O)[C@H](CCCCN)NC(=O)[C@@H](NC(=O)[C@H](C)NC(=O)[C@H](CCSC)NC(=O)[C@H](CCC(N)=O)NC(=O)[C@H](CCCCN)NC(=O)[C@H](CCCNC(=N)N)NC(=O)[C@H](CC(C)C)NC(=O)[C@H](CCCNC(=N)N)NC(=O)[C@@H](NC(=O)[C@H](Cc1ccc(O)cc1)NC(=O)[C@H](CC(N)=O)NC(=O)[C@H](CC(=O)O)NC(=O)[C@@H](NC(=O)[C@H](Cc1ccccc1)NC(=O)[C@@H](NC(=O)[C@H](C)NC(=O)[C@H](CC(=O)O)NC(=O)[C@H](CO)NC(=O)[C@@H](N)Cc1c[nH]cn1)C(C)C)[C@@H](C)O)[C@@H](C)O)C(C)C)C(=O)N[C@@H](CC(C)C)C(=O)N[C@@H](CC(N)=O)C(N)=O [Aviptadil]
Entering Intensive Care (%) (Age >=60, treatment group): 25%
Tolerability (human, in vivo): well tolerated
